“Also recorded” adds a separate entry of the source.
Columns and labels:
PUMA mRNA = assay: drug-induced PUMA mRNA expression in whole blood of healthy adults; type: cell-based, human; settings: for kinetics of PUMA induction: heparinized whole blood, 0-8 hours at 37° C., 20 μM BLM, 100 μM VP-16 (FIG. 5)
Procedure: In 8-well strip microtubes, 1.4 μl of 50× concentrations of drugs or controls (phosphate buffered saline (PBS) or DMSO) were added, and stored at −20° C. until use. […] Seventy μl of fresh heparinized whole blood was added into each well in triplicate, and incubated at 37° C. for 2-8 hours with the cap closed. For radiation treatment, blood was stimulated at designated doses using cesium-137. After each treatment, 50 μl of whole blood was transferred to filterplates as described below.
The mRNA and cDNA were prepared from whole blood. In brief, home-made 96-well filterplates were placed over collection plates, and 150 μl 5 mM Tris, pH 7.4, was applied. Following centrifugation at 120×g for 1 min at 4° C., 50 μl of blood samples were applied to each well and immediately centrifuged at 120×g for 2 min at 4° C., followed by washing of each well with 300 μl PBS once with centrifugation at 2000×g for 5 min at 4° C. Then, 60 μl stock lysis buffer, containing for example 0.5% N-Lauroylsarcosine, 4×SSC, 10 mM Tris HCl, pH 7.4, 1 mM EDTA, 0.1% IGEPAL CA-630, and 1.791 M guanidine thiocyanate, supplemented with 1% 2-mercaptoethanol (Bio Rad, Hercules, Calif., USA), 0.5 mg/ml proteinase K (Pierce, Rockford, Ill., USA), 0.1 mg/ml salmon sperm DNA (5 Prime Eppendorf/Brinkmann, Westbury, N.Y., USA), 0.1 mg/ml E. coli tRNA (Sigma), a cocktail of 10 mM each of the specific reverse primers shown in Table 1, and standard RNA34 oligonucleotides, were applied to the filterplates, followed by incubation at 37° C. for 10 min. The filterplates were then placed over oligo(dT)-immobilized microplates (GenePlate, RNAture), and centrifuged at 2000×g for 5 min at 4° C. Following overnight storage at 4° C., the microplates were washed with 100 μl plain lysis buffer 3 times, followed by 150 μl of wash buffer (0.5 M NaCl, 10 mM Tris, pH 7.4, 1 mM EDTA) 3 times at 4° C. The cDNA was directly synthesized in each well by adding 30 μl buffer containing 1×RT-buffer, 1.25 mM each of dNTP, 4 units rRNasin, and 80 units of MMLV reverse transcriptase (Promega) (without primers), and incubation at 37° C. for 2 hours. The specific primer-primed cDNA existed in solution, and oligo(dT)-primed cDNA stayed immobilized in the microplate. For TaqMan PCR (FIGS. 1, 3, 4), the resultant 4 μl cDNA solution was directly transferred to 384-well PCR plates, to which 5 μl of TaqMan universal master mix (ABI) and 1 μl oligonucleotide cocktail (15 μM each of forward and reverse primer, and 3-6 μM TaqMan probe) were applied, and PCR was conducted in PRISM 7900HT (ABI), with one cycle of 95° C. for 10 min followed by 45 cycles of 95° C. for 30 sec, 55° C. for 30 sec, and 60° C. for 1 min. For SYBR Green PCR (see FIG. 6), cDNA was diluted 3-4 fold in water, and 4 μl cDNA solution was directly transferred to 384-well PCR plates, to which 5 μl of a master mix (BioRad, Hercules, Calif.) and 1 μl of oligonucleotide cocktail (15 μM each of forward and reverse primer) were applied, and PCR was conducted in PRISM 7900HT (ABI), with one cycle of 95° C. for 10 min followed by 45 cycles of 95° C. for 30 sec and 60° C. for 1 min. Each gene was amplified in separate wells. The Ct was determined by analytical software (SDS, ABI). Although 1×RT buffer was used as a negative control, none of the primer pairs produced non-specific primer-dimers under these experimental conditions. For PUMA in FIG. 8, immobilized cDNA on the oligo(dT)-immobilized microplates was directly amplified in an iCycler (BioRad).
Quantitation of various mRNAs was conducted using the following method. Triplicate aliquots of 50 μl each of heparinized whole blood was applied to 96-well filterplates to trap leukocytes. The filterplates were placed over collection plates, and 150 μl 5 mM Tris, pH 7.4, was applied. […]

p21 mRNA = assay: drug-induced p21 mRNA expression in whole blood of leukemia and lymphoma patients; type: cell-based, human
human whole blood = assay: DNA fragmentation (apoptosis) in whole blood by agarose gel electrophoresis; type: cell-based; settings: 1 day of incubation, 100 μM VP-16, 20 μM BLM (FIG. 5 inset)
Procedure: Using a commercial kit (Puregene, Gentra, Minneapolis, Minn.), genomic DNA was purified from 300 μl each of whole blood with or without treatments. DNA was then analyzed in 3.5% agarose (3:1 NuSieve:agarose, FMC, Rockland, Me.) gel electrophoresis, stained with 0.5 μg/ml ethidium bromide, and photographic images were recorded by AlphaImager (Alpha Innotech, San Leandro, Calif.).
To mimic physiological conditions, whole blood was used, without isolating mononuclear cells. […] After 1 day of incubation, genomic DNA was extracted, and DNA fragmentation was analyzed by agarose gel electrophoresis using ethidium bromide staining.
Genomic DNA was purified from 300 μl each of whole blood with or without treatments, using a commercial kit (Puregene, Gentra, Minneapolis, Minn.). DNA was then analyzed in 3.5% agarose (3:1 NuSieve:agarose, FMC, Rockland, Me.) gel electrophoresis, stained with 0.5 μg/ml ethidium bromide, and photographic images were recorded by Alpha-Iimager (Alpha Innotech, San Leandro, Calif.).

[1] = tested on: leukemic non-Hodgkin's malignant lymphoma patient; assay: clinical course of patient 2 (leukemic non-Hodgkin's lymphoma); type: in vivo, human; settings: patient 2 with continued thrombocytopenia (FIG. 4)
BAX mRNA = assay: drug-induced BAX mRNA expression in whole blood of leukemia and lymphoma patients; type: cell-based, human; settings: leukemic lymphoma patient 2, 2 hours at 37° C., drug concentrations (FIG. 3)
Procedure: For human experiments, blood aliquots were stimulated with various anti-cancer drugs at 37° C. for 2 hours, then both p21 and BAX mRNA were measured. The anti-cancer drugs used in this study were clinical drugs, and the concentration of each drug was adjusted to typical blood levels 3-6 hours after intravenous administration.
The mRNA and cDNA were prepared from whole blood. In brief, home-made 96-well filterplates were placed over collection plates, and 150 μl 5 mM Tris, pH 7.4, was applied. Following centrifugation at 120×g for 1 min at 4° C., 50 μl of blood samples were applied to each well and immediately centrifuged at 120×g for 2 min at 4° C., followed by washing of each well with 300 μl PBS once with centrifugation at 2000×g for 5 min at 4° C. Then, 60 μl stock lysis buffer, containing for example 0.5% N-Lauroylsarcosine, 4×SSC, 10 mM Tris HCl, pH 7.4, 1 mM EDTA, 0.1% IGEPAL CA-630, and 1.791 M guanidine thiocyanate, supplemented with 1% 2-mercaptoethanol (Bio Rad, Hercules, Calif., USA), 0.5 mg/ml proteinase K (Pierce, Rockford, Ill., USA), 0.1 mg/ml salmon sperm DNA (5 Prime Eppendorf/Brinkmann, Westbury, N.Y., USA), 0.1 mg/ml E. coli tRNA (Sigma), a cocktail of 10 mM each of the specific reverse primers shown in Table 1, and standard RNA34 oligonucleotides, were applied to the filterplates, followed by incubation at 37° C. for 10 min. The filterplates were then placed over oligo(dT)-immobilized microplates (GenePlate, RNAture), and centrifuged at 2000×g for 5 min at 4° C. Following overnight storage at 4° C., the microplates were washed with 100 μl plain lysis buffer 3 times, followed by 150 μl of wash buffer (0.5 M NaCl, 10 mM Tris, pH 7.4, 1 mM EDTA) 3 times at 4° C. The cDNA was directly synthesized in each well by adding 30 μl buffer containing 1× RT-butter, 1.25 mM each of dNTP, 4 units rRNasin, and 80 units of MMLV reverse transcriptase (Promega) (without primers), and incubation at 37° C. for 2 hours. The specific primer-primed cDNA existed in solution, and oligo(dT)-primed cDNA stayed immobilized in the microplate. For TaqMan PCR (FIGS. 1, 3, 4), the resultant 4 μl cDNA solution was directly transferred to 384-well PCR plates, to which 5 μl of TaqMan universal master mix (ABI) and 1 μl oligonucleotide cocktail (15 μM each of forward and reverse primer, and 3-6 μM TaqMan probe) were applied, and PCR was conducted in PRISM 7900HT (ABI), with one cycle of 95° C. for 10 min followed by 45 cycles of 95° C. for 30 sec, 55° C. for 30 sec, and 60° C. for 1 min. […] The Ct was determined by analytical software (SDS, ABI).

p21 mRNA, Jurkat cells = assay: etoposide-induced p21 mRNA expression in cultured Jurkat cells; type: cell-based, human; settings: even when 100 μM was used (FIG. 1)
Procedure: Blood was obtained from healthy adults and from two leukemic non-Hodgkin's malignant lymphoma patients. […] For human experiments, blood aliquots were stimulated with various anti-cancer drugs at 37° C. for 2 hours, then both p21 and BAX mRNA were measured. The anti-cancer drugs used in this study were clinical drugs, and the concentration of each drug was adjusted to typical blood levels 3-6 hours after intravenous administration.
The mRNA and cDNA were prepared from whole blood. In brief, home-made 96-well filterplates were placed over collection plates, and 150 μl 5 mM Tris, pH 7.4, was applied. Following centrifugation at 120×g for 1 min at 4° C., 50 μl of blood samples were applied to each well and immediately centrifuged at 120×g for 2 min at 4° C., followed by washing of each well with 300 μl PBS once with centrifugation at 2000×g for 5 min at 4° C. […] The Ct was determined by analytical software (SDS, ABI).

[2] = 20 μM BLM or 100 μM VP-16, 4 hours at 37° C. (FIG. 6)

Row | Compound | concentration at which significant induction of PUMA was observed (PUMA mRNA; 0-20 μM BLM, 4 hours at 37° C. (FIG. 7)) | PUMA induction (PUMA mRNA; [2]) | PUMA induction (PUMA mRNA; BLM at concentrations as low as 0.2 μM, 2 hours at 37° C., all cases (FIG. 10C)) | kinetics of PUMA induction (PUMA mRNA) | BLM-induced p21 responses (ΔCt) compared with healthy donors (p21 mRNA; 1 μM BLM, 2 hours at 37° C., 13 leukemia and lymphoma patients vs 27 healthy donors, p=0.000002 (FIG. 15)) | fragmentation of DNA (human whole blood) | platelet count [1] | PUMA induction (PUMA mRNA; 100 μM VP-16, 2 hours at 37° C. (FIG. 9C)) | p21 mRNA induction (p21 mRNA; leukemic lymphoma patient 2, 2 hours at 37° C., drug concentrations (FIG. 3)) | BAX mRNA induction (BAX mRNA) | drug sensitivity (p21 mRNA expression) (p21 mRNA, Jurkat cells)
1 | bleomycin [BLM] | more than 0.1 VM | responses were confirmed in all individuals | induced | increased continuously for 8 hours | less than those of healthy control | confirmed; also recorded: fragmentation of DNA was observed | – | – | – | – | –
2 | COc1cc([C@@H]2c3cc4c(cc3[C@@H](O[C@@H]3O[C@@H]5CO[C@@H](C)O[C@H]5[C@H](O)[C@H]3O)[C@H]3COC(=O)[C@H]23)OCO4)cc(OC)c1O [VP-16, etoposide] | – | responses were confirmed in all individuals | – | transient induction | – | – | increased substantially | induced | induced | induced | resistant

— patent publication US20090011410A1, “METHOD FOR TAILORING ADMINISTRATION OF DRUGS BY QUANTITATION OF MRNA” (priority 2004, published 2009)
